# Source: PMC4494852, “Microwave-assisted preparation, structural characterization, lipophilicity, and anti-cancer assay of some hydroxycoumarin derivatives” (Monatshefte Fur Chemie, 2014)
# System: human prostate cancer cells DU145
# Test: Cytotoxicity assay (PrestoBlue, resazurin)
# Type: cell-based
# Conditions: 10 and 100 μM, 48 h
# Description: (§1) Synthesized substances were dissolved in DMSO (Sigma-Aldrich) to obtain 20 mM stock solutions and kept in 4 °C prior to use.
# (§2) The human prostate cancer cells DU145 and mouse melanoma cells B16F10 were maintained in humidified incubator containing 5 % CO2 at 37 °C. DU145 cells were cultured in RPMI medium and B16F10 were cultured in DMEM medium. The media were supplemented with 10 % of fetal calf serum (FCS) and 1 % of antibiotic antimycotic (Sigma). Cells were passaged every 2–3 days. All cell lines were obtained from ATCC (The Global Bioresource Center).
# (§3) PrestoBlue (test based on resazurin) was used for analysis cytotoxicity/cytostatic effects. DU145 and B16F10 cells were seeded on 96-well plate (10 × 10^3 cells per well). Examined substances were added to culture after overnight cell incubation. Two concentrations of substances (10 and 100 μM) were used. Control cells and control cells with solvent (DMSO) were applied. After 48 h PrestoBlue test was performed.
row,Compound,cytotoxicity in primary screen
1,"Cc1cc(O)c2c(C)cc(=O)oc2c1 [Compound 2, 5-hydroxy-4,7-dimethylcoumarin]",slightly active
2,"CC(=O)c1c(C)cc2oc(=O)cc(C)c2c1O [Compound 3, 6-acetyl-5-hydroxy-4,7-dimethylcoumarin]",slightly active

# System: mouse melanoma cells B16F10
# Test: Cytotoxicity assay (PrestoBlue, resazurin)
# Type: cell-based
# Conditions: B16-F10 (melanoma), 10 and 100 μM, 48 h
# Description: as §1, §2, §3
row,Compound,cytotoxicity in primary screen
1,"Cc1cc(O)c2c(C)cc(=O)oc2c1 [Compound 2, 5-hydroxy-4,7-dimethylcoumarin]",slightly active
2,"CC(=O)c1c(C)cc2oc(=O)cc(C)c2c1O [Compound 3, 6-acetyl-5-hydroxy-4,7-dimethylcoumarin]",slightly active

# System: not given
# Test: not given
# Conditions: not given
row,melting point [°C],Compound
1,204,"N#CCOc1cc(=O)oc2ccccc12 [Compound 4, 4-(cyanomethoxy)chromen-2-one]"
2,214 to 216,"Cc1cc(OCC#N)c2c(C)cc(=O)oc2c1 [Compound 5, 5-(cyanomethoxy)-4,7-dimethylchromen-2-one]"
3,283 to 284,"CC(=O)c1c(C)cc2oc(=O)cc(C)c2c1OCC#N [Compound 6, 6-acetyl-5-(cyanomethoxy)-4,7-dimethylchromen-2-one]"

# System: leukemia HL-60 (TB)
# Test: not given
# Parameters: method as in PMID 21439691
# Conditions: cited from earlier work
row,Compound,growth inhibition
1,CC(=O)c1c(OCC#N)ccc2c(C)cc(=O)oc12 [8-Acetyl-7-(cyanomethoxy)-4-methylcoumarin],inhibited the growth

# System: leukemia K-562
# Test: not given
# Parameters: method as in PMID 21439691
# Conditions: cited from earlier work
row,Compound,growth inhibition
1,CC(=O)c1c(OCC#N)ccc2c(C)cc(=O)oc12 [8-Acetyl-7-(cyanomethoxy)-4-methylcoumarin],inhibited the growth

# System: leukemia RPMI-8226
# Test: not given
# Parameters: method as in PMID 21439691
# Conditions: cited from earlier work
row,Compound,growth inhibition
1,CC(=O)c1c(OCC#N)ccc2c(C)cc(=O)oc12 [8-Acetyl-7-(cyanomethoxy)-4-methylcoumarin],inhibited the growth

# System: non-small-cell lung cancer NCI-H522
# Test: not given
# Parameters: method as in PMID 21439691
# Conditions: cited from earlier work
row,Compound,growth inhibition
1,CC(=O)c1c(OCC#N)ccc2c(C)cc(=O)oc12 [8-Acetyl-7-(cyanomethoxy)-4-methylcoumarin],inhibited the growth

# System: prostate cancer PC-3
# Test: not given
# Parameters: method as in PMID 21439691
# Conditions: cited from earlier work
row,Compound,growth inhibition
1,CC(=O)c1c(OCC#N)ccc2c(C)cc(=O)oc12 [8-Acetyl-7-(cyanomethoxy)-4-methylcoumarin],inhibited the growth

# System: sarcoma 180
# Test: not given
# Parameters: method as in doi:10.1021/jo00316a018
# Conditions: cited from earlier work
row,Compound,inhibitory activity
1,C/C(=C\COc1ccc2ccc(=O)oc2c1)C1=CC(=O)C(C)(C)O1 [Geiparvarin],significant inhibitory activity

# System: Lewis lung carcinoma
# Test: not given
# Parameters: method as in doi:10.1021/jo00316a018
# Conditions: cited from earlier work
row,Compound,inhibitory activity
1,C/C(=C\COc1ccc2ccc(=O)oc2c1)C1=CC(=O)C(C)(C)O1 [Geiparvarin],significant inhibitory activity

# System: P-388 lymphotic leukemia
# Test: not given
# Parameters: method as in doi:10.1021/jo00316a018
# Conditions: cited from earlier work
row,Compound,inhibitory activity
1,C/C(=C\COc1ccc2ccc(=O)oc2c1)C1=CC(=O)C(C)(C)O1 [Geiparvarin],significant inhibitory activity

# System: Walker 256 carcinosarcoma
# Test: not given
# Parameters: method as in doi:10.1021/jo00316a018
# Conditions: cited from earlier work
row,Compound,inhibitory activity
1,C/C(=C\COc1ccc2ccc(=O)oc2c1)C1=CC(=O)C(C)(C)O1 [Geiparvarin],significant inhibitory activity

# System: not given
# Test: not given
# Conditions: known logP of standards; cited from earlier work
row,Compound,LogP value
1,"Nc1ccc(Cl)cc1Cl [2,4-Dichloroaniline, 2,4-dichloroaniline, reference compound]",2.91
2,"CC(=O)Nc1ccc(Cl)c(Cl)c1 [3,4-Dichloroacetanilide, reference compound]",2.96
3,"Nc1ccc(Cl)c(Cl)c1 [3,4-Dichloroaniline, 3,4-dichloroaniline, reference compound]",2.69
4,"c1ccc(Cc2ccccc2)cc1 [Diphenylmethane, diphenylmethane, reference compound]",4.14
5,"O=C1Nc2ccccc2C1=O [Isatine, isatine, reference compound]",0.83

# System: not listed separately
# Test: Lipophilicity by reversed-phase TLC on RP-18 WF254s plates with standardization
# Conditions: acetonitrile/water
Compound,S (slope of the trend line RM vs φ),R M0 (lipophilicity extrapolated to 100 % water)
"Nc1ccc(Cl)cc1Cl [2,4-Dichloroaniline, 2,4-dichloroaniline, reference compound]",3.3029,1.8609
"CC(=O)Nc1ccc(Cl)c(Cl)c1 [3,4-Dichloroacetanilide, reference compound]",3.5551,
"Nc1ccc(Cl)c(Cl)c1 [3,4-Dichloroaniline, 3,4-dichloroaniline, reference compound]",3.2165,1.7807
"CC(=O)c1c(C)cc2oc(=O)cc(C)c2c1O [Compound 3, 6-acetyl-5-hydroxy-4,7-dimethylcoumarin]",3.706,
"O=C1Nc2ccccc2C1=O [Isatine, isatine, reference compound]",2.0278,0.7435

# Second part, led by results:
S (slope of the trend line RM vs φ),Compound,R M0 (lipophilicity extrapolated to 100 % water)
3.2466,"Cc1cc(O)c2c(C)cc(=O)oc2c1 [Compound 2, 5-hydroxy-4,7-dimethylcoumarin]",
2.8179,"N#CCOc1cc(=O)oc2ccccc12 [Compound 4, 4-(cyanomethoxy)chromen-2-one]",
3.3589,"Cc1cc(OCC#N)c2c(C)cc(=O)oc2c1 [Compound 5, 5-(cyanomethoxy)-4,7-dimethylchromen-2-one]",
3.7596,"CC(=O)c1c(C)cc2oc(=O)cc(C)c2c1OCC#N [Compound 6, 6-acetyl-5-(cyanomethoxy)-4,7-dimethylchromen-2-one]",
5.2957,"c1ccc(Cc2ccccc2)cc1 [Diphenylmethane, diphenylmethane, reference compound]",

# Same assay, conditions: acetonitrile/water, molar fraction for which lipophilicity equals 0
row,φ 0 (intercept of the trend line with abscissa axis),Compound
1,0.437,"Cc1cc(O)c2c(C)cc(=O)oc2c1 [Compound 2, 5-hydroxy-4,7-dimethylcoumarin]"
2,0.519,"CC(=O)c1c(C)cc2oc(=O)cc(C)c2c1O [Compound 3, 6-acetyl-5-hydroxy-4,7-dimethylcoumarin]"
3,0.438,"N#CCOc1cc(=O)oc2ccccc12 [Compound 4, 4-(cyanomethoxy)chromen-2-one]"
4,0.499,"Cc1cc(OCC#N)c2c(C)cc(=O)oc2c1 [Compound 5, 5-(cyanomethoxy)-4,7-dimethylchromen-2-one]"
5,0.517,"CC(=O)c1c(C)cc2oc(=O)cc(C)c2c1OCC#N [Compound 6, 6-acetyl-5-(cyanomethoxy)-4,7-dimethylchromen-2-one]"

# Same assay, conditions: dioxane/water
Compound,S (slope of the trend line RM vs φ),R M0 (lipophilicity extrapolated to 100 % water)
"Nc1ccc(Cl)cc1Cl [2,4-Dichloroaniline, 2,4-dichloroaniline, reference compound]",3.3036,2.0135
"CC(=O)Nc1ccc(Cl)c(Cl)c1 [3,4-Dichloroacetanilide, reference compound]",3.0847,
"Nc1ccc(Cl)c(Cl)c1 [3,4-Dichloroaniline, 3,4-dichloroaniline, reference compound]",3.3499,1.9357
"CC(=O)c1c(C)cc2oc(=O)cc(C)c2c1O [Compound 3, 6-acetyl-5-hydroxy-4,7-dimethylcoumarin]",4.1018,
"O=C1Nc2ccccc2C1=O [Isatine, isatine, reference compound]",1.2132,0.3418

# Second part, led by results:
S (slope of the trend line RM vs φ),Compound,R M0 (lipophilicity extrapolated to 100 % water)
3.3439,"Cc1cc(O)c2c(C)cc(=O)oc2c1 [Compound 2, 5-hydroxy-4,7-dimethylcoumarin]",
2.5467,"N#CCOc1cc(=O)oc2ccccc12 [Compound 4, 4-(cyanomethoxy)chromen-2-one]",
3.2254,"Cc1cc(OCC#N)c2c(C)cc(=O)oc2c1 [Compound 5, 5-(cyanomethoxy)-4,7-dimethylchromen-2-one]",
3.2502,"CC(=O)c1c(C)cc2oc(=O)cc(C)c2c1OCC#N [Compound 6, 6-acetyl-5-(cyanomethoxy)-4,7-dimethylchromen-2-one]",
5.0853,"c1ccc(Cc2ccccc2)cc1 [Diphenylmethane, diphenylmethane, reference compound]",

# Same assay, conditions: dioxane/water, molar fraction for which lipophilicity equals 0
row,φ 0 (intercept of the trend line with abscissa axis),Compound
1,0.483,"Cc1cc(O)c2c(C)cc(=O)oc2c1 [Compound 2, 5-hydroxy-4,7-dimethylcoumarin]"
2,0.55,"CC(=O)c1c(C)cc2oc(=O)cc(C)c2c1O [Compound 3, 6-acetyl-5-hydroxy-4,7-dimethylcoumarin]"
3,0.452,"N#CCOc1cc(=O)oc2ccccc12 [Compound 4, 4-(cyanomethoxy)chromen-2-one]"
4,0.498,"Cc1cc(OCC#N)c2c(C)cc(=O)oc2c1 [Compound 5, 5-(cyanomethoxy)-4,7-dimethylchromen-2-one]"
5,0.501,"CC(=O)c1c(C)cc2oc(=O)cc(C)c2c1OCC#N [Compound 6, 6-acetyl-5-(cyanomethoxy)-4,7-dimethylchromen-2-one]"

# Same assay, conditions: isopropanol/water
Compound,S (slope of the trend line RM vs φ),R M0 (lipophilicity extrapolated to 100 % water)
"Nc1ccc(Cl)cc1Cl [2,4-Dichloroaniline, 2,4-dichloroaniline, reference compound]",4.2876,2.1269
"CC(=O)Nc1ccc(Cl)c(Cl)c1 [3,4-Dichloroacetanilide, reference compound]",4.1116,
"Nc1ccc(Cl)c(Cl)c1 [3,4-Dichloroaniline, 3,4-dichloroaniline, reference compound]",4.4484,2.149
"CC(=O)c1c(C)cc2oc(=O)cc(C)c2c1O [Compound 3, 6-acetyl-5-hydroxy-4,7-dimethylcoumarin]",3.15,
"O=C1Nc2ccccc2C1=O [Isatine, isatine, reference compound]",2.0065,0.5885

# More lines, main results first:
S (slope of the trend line RM vs φ),Compound,R M0 (lipophilicity extrapolated to 100 % water)
2.8574,"Cc1cc(O)c2c(C)cc(=O)oc2c1 [Compound 2, 5-hydroxy-4,7-dimethylcoumarin]",
2.2371,"N#CCOc1cc(=O)oc2ccccc12 [Compound 4, 4-(cyanomethoxy)chromen-2-one]",
2.3947,"Cc1cc(OCC#N)c2c(C)cc(=O)oc2c1 [Compound 5, 5-(cyanomethoxy)-4,7-dimethylchromen-2-one]",
3.2079,"CC(=O)c1c(C)cc2oc(=O)cc(C)c2c1OCC#N [Compound 6, 6-acetyl-5-(cyanomethoxy)-4,7-dimethylchromen-2-one]",
6.2485,"c1ccc(Cc2ccccc2)cc1 [Diphenylmethane, diphenylmethane, reference compound]",

# Same assay, conditions: isopropanol/water, molar fraction for which lipophilicity equals 0
row,φ 0 (intercept of the trend line with abscissa axis),Compound
1,0.445,"Cc1cc(O)c2c(C)cc(=O)oc2c1 [Compound 2, 5-hydroxy-4,7-dimethylcoumarin]"
2,0.479,"CC(=O)c1c(C)cc2oc(=O)cc(C)c2c1O [Compound 3, 6-acetyl-5-hydroxy-4,7-dimethylcoumarin]"
3,0.401,"N#CCOc1cc(=O)oc2ccccc12 [Compound 4, 4-(cyanomethoxy)chromen-2-one]"
4,0.434,"Cc1cc(OCC#N)c2c(C)cc(=O)oc2c1 [Compound 5, 5-(cyanomethoxy)-4,7-dimethylchromen-2-one]"
5,0.383,"CC(=O)c1c(C)cc2oc(=O)cc(C)c2c1OCC#N [Compound 6, 6-acetyl-5-(cyanomethoxy)-4,7-dimethylchromen-2-one]"

# Same assay, conditions: methanol/water
Compound,S (slope of the trend line RM vs φ),R M0 (lipophilicity extrapolated to 100 % water)
"Nc1ccc(Cl)cc1Cl [2,4-Dichloroaniline, 2,4-dichloroaniline, reference compound]",2.7739,1.8895
"CC(=O)Nc1ccc(Cl)c(Cl)c1 [3,4-Dichloroacetanilide, reference compound]",2.4827,
"Nc1ccc(Cl)c(Cl)c1 [3,4-Dichloroaniline, 3,4-dichloroaniline, reference compound]",3.2073,2.1151
"CC(=O)c1c(C)cc2oc(=O)cc(C)c2c1O [Compound 3, 6-acetyl-5-hydroxy-4,7-dimethylcoumarin]",3.2113,
"O=C1Nc2ccccc2C1=O [Isatine, isatine, reference compound]",1.4786,0.6009

# The next lines start with results.
S (slope of the trend line RM vs φ),Compound,R M0 (lipophilicity extrapolated to 100 % water)
2.746,"Cc1cc(O)c2c(C)cc(=O)oc2c1 [Compound 2, 5-hydroxy-4,7-dimethylcoumarin]",
2.2036,"N#CCOc1cc(=O)oc2ccccc12 [Compound 4, 4-(cyanomethoxy)chromen-2-one]",
2.677,"Cc1cc(OCC#N)c2c(C)cc(=O)oc2c1 [Compound 5, 5-(cyanomethoxy)-4,7-dimethylchromen-2-one]",
2.3247,"CC(=O)c1c(C)cc2oc(=O)cc(C)c2c1OCC#N [Compound 6, 6-acetyl-5-(cyanomethoxy)-4,7-dimethylchromen-2-one]",
4.067,"c1ccc(Cc2ccccc2)cc1 [Diphenylmethane, diphenylmethane, reference compound]",

# Same assay, conditions: methanol/water, molar fraction for which lipophilicity equals 0
row,φ 0 (intercept of the trend line with abscissa axis),Compound
1,0.675,"Cc1cc(O)c2c(C)cc(=O)oc2c1 [Compound 2, 5-hydroxy-4,7-dimethylcoumarin]"
2,0.754,"CC(=O)c1c(C)cc2oc(=O)cc(C)c2c1O [Compound 3, 6-acetyl-5-hydroxy-4,7-dimethylcoumarin]"
3,0.607,"N#CCOc1cc(=O)oc2ccccc12 [Compound 4, 4-(cyanomethoxy)chromen-2-one]"
4,0.669,"Cc1cc(OCC#N)c2c(C)cc(=O)oc2c1 [Compound 5, 5-(cyanomethoxy)-4,7-dimethylchromen-2-one]"
5,0.577,"CC(=O)c1c(C)cc2oc(=O)cc(C)c2c1OCC#N [Compound 6, 6-acetyl-5-(cyanomethoxy)-4,7-dimethylchromen-2-one]"
